This note sets out measurements from patent publication US20240374535A1, “COMPOSITIONS AND METHODS FOR TREATING BIOFILM DISORDERS AND INFECTIONS” (AHV International B.V., priority 2021, published 2024).

pIC50: −log10 of the molar value.

The test system of test [1] is Staphylococcus epidermis ATCC 35984 biofilm. Kind of test: MBEC assay (biofilm eradication, CFU log reduction). The class given is cell-based, S. epidermidis. Particulars: 48 h grown biofilm, 20 h treatment, CFU log reduction vs untreated; for minimal effective concentration: read-out: S. epidermidis MBEC mM with log reduction ≥1. How it is done:
(§1) The exact weighed amount was noted and the volume of solvent to reach a 80 mM dilution calculated. Half of the volume was added first, by adding Tween 80. In a second step, the other half of the volume DMSO was added and the closed tube inverted 5-10 times and then vortexed very thoroughly for at least 30 seconds. If after this procedure unsolved material was still visible, the tube was placed in a shaker at 37° C. at 150 rpm for at least 30 minutes. […] For the MBEC assay (method 1.3) the solution needs to be diluted to a final concentration of 2 mM in 0.9% saline solution and then further diluted to 1 mM, 0.5 mM, 0.25 mM and 0.125 mM in saline. Those dilutions were added as treatment to the 96 well plates with the grown biofilm (see method 3).
(§2) Frozen aliquots of Staphylococcus epidermis ATCC 35984 and Pseudomonas aeruginosa ATCC 27853 were used to inoculate 20 mL of Tryptic Soy Broth (TSB) in a 100 mL Erlenmeyer flask at 37° C. and 150 rpm and incubated overnight (Infors). The OD600 of the overnight culture was measured with a spectrophotometer (Evolution™ 201/220 UV-Visible Spectrophotometer, Thermo Fisher Scientific) and diluted to an OD600 of 0.2, which resembles 10^8 CFU/mL. The cell suspension of OD600=0.2 was seeded into a U-bottom-shaped 96 well plates by pipetting 100 μL per well in column 1-11, column 12 was filled with 100 μL medium as sterility control. The 96 well plates were sealed with adhesive polyethylene film for sealing microplates and incubated for 48 h at 37° C. at static conditions. After the biofilm growth phase, 100 μL of treatment solutions (method 1) were added to the vials resulting in treatment concentrations of 1 mM, 0.5 mM, 0.25 mM and 0.125 mM and with the respective concentration of Tween 80 and DMSO each at 0.63%, 0.32%, 0.16% and 0.08%. The same concentration was applied to four different wells of the same bacterial strain, resulting in four replicates for each concentration and strain. The treatment was incubated for 20 h at 37° C. at static conditions. After the treatment the supernatant was carefully removed and the well with the biofilm washed carefully for one time with 200 μL 0.9% saline solution. 200 μL saline solution was added and the biofilm was resuspended thoroughly. When fully homogenized then 20 μL was used for the first dilution in 180 μL 0.9% saline solution, which was prepared in a second plate. This dilution was continued until dilution step 10E−5 and 100 μL of the 10E−4 and 10E−5 dilution plated on a TSA plate. The TSA plates were incubated at 37° C. for 24 h. The colonies on the plates were enumerated, the colony forming units per mL of the dispensed biofilm and averages thereof and the log reduction in comparison with the untreated sample from the same wells plate calculated. Reduction of colony forming units goes hand in hand with the thickness of the biofilm and thus with the number bacteria that are present in the biofilm. Therefore, a significant reduction of colony forming units in the biofilm was defined at the value of log reduction ≥1 or more. This assay was repeated two times in two independent experiments)

The test system of test [2] is Pseudomonas aeruginosa ATCC 27853. The test is described as follows: MIC assay (planktonic growth inhibition, OD600). Particulars: 24 h at 37° C.; for pIC50 / IC90: Pseudomonas aeruginosa, ATCC27853; for pIC50 / P. aeruginosa MIC50: minimal concentration reducing final OD600 by 50%; for pIC50: read-out: P. aeruginosa MIC50; for IC90 / P. aeruginosa MIC90: minimal concentration reducing final OD600 by 90%; for IC90: read-out: P. aeruginosa MIC90. The class given is cell-based, P. aeruginosa. How it is done: as §1
(§3) Frozen aliquots of Staphylococcus epidermis ATCC 35984 and Pseudomonas aeruginosa ATCC 27853 were used to inoculate a tryptic soy agar (TSA) plate and incubated overnight at 37° C. After incubation 3-5 well-isolated colonies with the same morphology were selected from the TSA plate and resuspended in 2 mL 0.9% saline solution with 3-6 glass beads and vortexed. The optical density at 600 nm (OD600) of the bacterial suspension was measured with a spectrophotometer (Evolution™ 201/220 UV-Visible Spectrophotometer, Thermo Fisher Scientific) and diluted to an OD600 of 0.0008, which resembles 10^6 CFU/mL.
(§4) The MIC assay was performed in a flat-bottom 96-microtiter plate. 50 μL of MHB-II was added into columns 2-11, and 100 μL to column 12 for sterility control. 100 μL of the 8 mM test compound solution (method 1) was added to column 1. A two-fold dilution series of the solution in MHB-II was achieved by resuspending 50 μL of the 8 mM solution from column 1 to column 2. This step was repeated until column 10. The respective concentration of Tween 80 and DMSO in column 1 was 2.5%, which is two-fold diluted throughout the plate. 50 μL of the bacterial suspension was added to column 1-11. The microtiter plates were sealed with adhesive polyethylene film for sealing microplates (Diversified Biotech) and incubated for 24 h at 37° C. After incubation the OD was measured at 600 nm with the Varioskan (Thermo Fisher Scientific). […] This assay was repeated three times in three independent experiments.

For test [3], the system named is Staphylococcus epidermis ATCC 35984 biofilm. The test is described as follows: MBIC assay (biofilm inhibition, crystal violet). The class given is cell-based, S. epidermidis. The conditions noted are these: 48 h incubation, absorbance 540 nm. How it is done: as §1
(§5) Frozen aliquots of Staphylococcus epidermis ATCC 35984 and Pseudomonas aeruginosa ATCC 27853 were used to inoculate a tryptic soy agar (TSA) plate and were incubated overnight at 37° C. After incubation 3-5 well-isolated colonies with the same morphology were selected from the TSA plate and resuspended in 2 mL 0.9% saline solution with 3-6 glass beads and vortexed. The optical density of the bacterial suspension was measured at 600 nm (OD600) with a spectrophotometer (Evolution™ 201/220 UV-Visible Spectrophotometer, Thermo Fisher Scientific) and diluted to an OD600 of 0.2. The MBIC assay was performed in a 96-microtiter plate. 50 μL of TSB was added into columns 2-11, and 100 μL to column 12 for sterility control. 100 μL of the 8 mM test compound solution (method 1) was added to column 1. A two-fold dilution series of the solution in TSB was achieved by resuspending 50 μL of the 8 mM solution from column 1 in column 2. This step was repeated until column 10. The respective concentration of Tween 80 and DMSO in column 1 is at 2.5%, which is two-fold diluted throughout the plate. 50 μL of the bacterial suspension was added to column 1-11. The microtiter plates were sealed with adhesive polyethylene film for sealing microplates (Diversified Biotech) and incubated for 48 h at 37° C. After incubation the supernatant is carefully removed and the well with the biofilm washed for one time with 100 μL 0.9% saline solution. 100 μL 0.1 M HCl was added and incubated for 1 h at room temperature to fix the biofilm. After incubation the HCl was removed and 100 μL crystal violet (0.1% v/v in water) was added and incubated for 30 min at room temperature. The unbound crystal violet was removed and the wells washed one time with 100 μL demineralized water. 100 μL 30% acetic acid was added and incubated for 1 h at 37° C. and 150 rpm. The solution was resuspended and transferred to a flat-bottom 96-well plate and the absorbance measured at 540 nm with the spectrophotometer. This assay was repeated two times in two independent experiments.

The test system of test [4] is Pseudomonas aeruginosa ATCC 27853 biofilm. Kind of test: MBIC assay (biofilm inhibition, crystal violet). The class given is cell-based, P. aeruginosa. Particulars: 48 h incubation, absorbance 540 nm. How it is done:
as §1, §5

Test [5] deals with Staphylococcus epidermis ATCC 35984. The test is described as follows: MIC assay (planktonic growth inhibition, OD600). The class given is cell-based, S. epidermidis. Particulars: 24 h at 37° C.; for pIC50 / S. epidermidis MIC50: minimal concentration reducing final OD600 by 50%; for pIC50: read-out: S. epidermidis MIC50; for IC90 / S. epidermidis MIC90: minimal concentration reducing final OD600 by 90%; for IC90: read-out: S. epidermidis MIC90. How it is done:
as §1, §3, §4

In test [6] the test system is Pseudomonas aeruginosa ATCC 27853 biofilm. Kind of test: MBEC assay (biofilm eradication, CFU log reduction). Particulars: 48 h grown biofilm, 20 h treatment, CFU log reduction vs untreated; for minimal effective concentration: Pseudomonas aeruginosa, ATCC27853, read-out: P. aeruginosa MBEC mM with log reduction ≥1. The class given is cell-based, P. aeruginosa. How it is done: as §1, §2

For a further test, the system named is udder cleft wound. The test is described as follows: In vivo udder cleft dermatitis test: wound assessment after spray treatment. On the set-up: species or system cow. Particulars: for Conclusion (effect on udder cleft wound): over 60 days, all cows of the group. How it is done: An example of a biofilm-related disorder is Udder Cleft Dermatitis (UCD), which relates to a chronic wound. In this Example, di-alkyl thiosulfonates, dialkyl thiosulfinates and di-alkyl disulfides were tested for their effect on cows affected by UCD.
Experiments were performed to examine the effect of various sprays containing water (control), a test compound, or a reference compound (CTC spray, which contains chlorotetracycline hydrochloride, and was obtained from Dechra veterinary products).
0.35 mL of the spray was sprayed on an udder cleft wound per treatment. Treatments took place once a day at t=0, at t=3 days and t=6 days. In Table 6, the assessment qualifications that are used in Table 7, are explained.

For `CCCSSCCC` [Di-n-propyl disulfide], the minimal effective concentration in test [1] and in test [6] was greater than 4 mM each time. In addition, the pIC50 in test [2] and in test [5] was less than 2.40 throughout. The IC90 in test [2] and in test [5] was greater than 4000 µM throughout. Also, the “S. epidermidis MBIC90” value in test [3] is 4 mM. In test [4], the “P. aeruginosa MBIC90” value is greater than 4 mM. Further, in the test on udder cleft wound (immediately after the treatment, later infection reduced and wound healed), the “inflammation of the udder cleft wound after treatment” value was “fast inflammation reduction”. In addition, the “Conclusion (effect on udder cleft wound)” value in the test on udder cleft wound is given as “Positive effect”.

On to `[O-][S+](Sc1ccccc1)c1ccccc1` (stereo not drawn) [Di-phenyl thiosulfinate], for which, in test [1], the “S. epidermidis MBEC mM with log reduction ≥1” value came out at 2 mM. In test [2], the “P. aeruginosa MIC50” value worked out at 1000 µM and the “P. aeruginosa MIC90” value is 1000 µM. In addition, in test [3], the “S. epidermidis MBIC90” value is given as greater than 4 mM. Further, in test [4], the “P. aeruginosa MBIC90” value was greater than 4 mM. In test [5], the “S. epidermidis MIC50” value stood at 1000 µM and the “S. epidermidis MIC90” value came to 1000 µM. Further, the “P. aeruginosa MBEC mM with log reduction ≥1” value in test [6] was determined as 2 mM. Also, in the test with udder cleft wound, the “Conclusion (effect on udder cleft wound)” value is “No effect”.

As to `Cc1ccc(SSc2ccc(C)cc2)cc1` [Di-p-tolyl disulfide], the minimal effective concentration in test [1] and in test [6] was greater than 1 mM throughout. Also, the pIC50 in test [2] and in test [5] was less than 2.40 each time. Further, the IC90 in test [2] and in test [5] was greater than 4000 µM throughout. For the same molecule, the “S. epidermidis MBIC90” value in test [3] is greater than 4 mM. Also, in test [4], the “P. aeruginosa MBIC90” value was 4 mM. For the same molecule, the “Conclusion (effect on udder cleft wound)” value in the test on udder cleft wound is reported as “No effect”.

Take `Clc1ccc(SSc2ccc(Cl)cc2)cc1` [Bis (4-chlorophenyl) disulfide, Bis(4-chlorophenyl) disulfide]: the minimal effective concentration in test [1] and in test [6] was greater than 1 mM in each case. The pIC50 is 4.70 in test [2] and 5.00 in test [5]. In addition, the IC90 in test [2] and in test [5] was 30 µM in each case. In addition, the “S. epidermidis MBIC90” value in test [3] is recorded as greater than 4 mM. Moreover, the “P. aeruginosa MBIC90” value in test [4] is reported as greater than 4 mM.

As for `CC(C)S[S+]([O-])C(C)C` (stereo not drawn) [Di-isopropyl thiosulfinate], the “S. epidermidis MBEC mM with log reduction ≥1” value in test [1] came to 0.5 mM. Moreover, in test [2], the “P. aeruginosa MIC50” value came out at 2000 µM and the “P. aeruginosa MIC90” value turned out to be 4000 µM. Moreover, in test [3], the “S. epidermidis MBIC90” value is reported as greater than 4 mM. For the same molecule, in test [4], the “P. aeruginosa MBIC90” value was greater than 4 mM. In test [5], the “S. epidermidis MIC50” value was 2000 µM and the “S. epidermidis MIC90” value is 2000 µM. Besides, the “P. aeruginosa MBEC mM with log reduction ≥1” value in test [6] is reported as 0.125 mM.

Turning to `[O-][S+](Cc1ccccc1)SCc1ccccc1` [D-benzyl thiosulfinate, Di-benzyl thiosulfinate], in test [1], the “S. epidermidis MBEC mM with log reduction ≥1” value was 1 mM. In addition, in test [2], the “P. aeruginosa MIC50” value is 60 µM and the “P. aeruginosa MIC90” value was found to be 500 µM. Also, the “S. epidermidis MBIC90” value in test [3] was 4 mM. In addition, the “P. aeruginosa MBIC90” value in test [4] is reported as greater than 4 mM. In addition, in test [5], the “S. epidermidis MIC50” value amounted to 30 µM and the “S. epidermidis MIC90” value was 30 µM. In addition, the “P. aeruginosa MBEC mM with log reduction ≥1” value in test [6] is listed as 0.125 mM.

Consider `Cc1ccc(S[S+]([O-])c2ccc(C)cc2)cc1` (stereo not drawn) [Bis (p-tolyl) thiosulfinate], for which the “S. epidermidis MBEC mM with log reduction ≥1” value in test [1] came out at 1 mM. Besides, in test [2], the “P. aeruginosa MIC50” value came to 125 µM and the “P. aeruginosa MIC90” value came to 250 µM. In addition, the “S. epidermidis MBIC90” value in test [3] was greater than 4 mM. In test [4], the “P. aeruginosa MBIC90” value was greater than 4 mM. Further, in test [5], the “S. epidermidis MIC50” value is 125 µM and the “S. epidermidis MIC90” value was determined as 250 µM. Moreover, the “P. aeruginosa MBEC mM with log reduction ≥1” value in test [6] is recorded as 1 mM.
